According to patent US20240294466A1, “SODIUM N-(8-(2- HYDROXYBENZOYL)AMINO)CAPRYLATE P[…] A” (Novo Nordisk A/S, priority 2021, published 2024):
Read-outs that look alike come from different tables or passages of the source.

Assays:
[1] = XRPD FWHM of the peak at 8.7±0.2° 2θ (degree of crystal imperfections), method 1; type: physicochemical; conditions: for FWHM (automatic mode), XRPD peak around 8.7 ± 0.2° 2θ, Before: before heat treatment
Procedure: (§1) XRPD was performed using a Malvern Panalytical Empyrean diffractometer at ambient conditions. The diffraction pattern was measured at room temperature using an Empyrean Cu LFF HR (45 kV/40 mA) source and PIXcel3D-Medipix3 1×1 detector. The measurement was performed in the range of 2-40° 20 using a scan speed of 0.067335° 2θ/s and a step size of 0.0262606° 2θ. The samples were measured in transmission mode and with a spinner revolution time of 1 second. Approximately 200 mg of sample were placed between two sheets of Kapton Polyimide Thin-film. The measurements were performed using a Soller slit of 0.04 radians and a fixed divergence slit of 0.5° on the incident beam, and a 3 mm Anti scatter slit and a Soller slit of 0.04 radians in the diffracted beam.
The degree of crystal imperfections was assessed by use of the FWHM as more crystal imperfections might cause peak broadening and lower peak height, which leads to higher FWHM values due to fewer lattice planes with identical orientation contributing to the diffraction peak. Oppositely, in the absence of crystal imperfections, lattice planes with identical orientation increase and result in narrower and higher diffraction peaks leading to smaller FWHM values. The FWHM was calculated using the characteristic peak at 8.7±0.2° 2θ by finding the apex of the peak and measuring the height of the peak applying the x-axis as the baseline (automatic mode) (see FIG. 11) or applying a baseline spanning the two surrounding troughs (manual mode) (see FIG. 12). This value is then divided in half to find the half height. Hereafter the width of the peak at that half height is measured and reported in ° 2θ. Alternatively, the peak at 6.0±0.2° 2θ may also be used to calculate the FWHM.
(§2) Samples from a batch of SNAC polymorphic form A (Batch 5) with a FWHM of 0.97° 2θ (automatic mode) and a moisture uptake of 1.98% at 65% RH from the beginning were heated to 90, 100, 110, 120, 130, and 140° C., respectively, in a tray oven. The samples were exposed to their respective temperatures for up to 72 h. The sample size was small enough to ensure that the samples equilibrated completely, within a few of minutes, to the oven temperature. Samples were taken during the 72 h of elevated temperature exposure and subjected to XRPD measurements in accordance with method 1 to determine the polymorphic form and impact on crystal imperfections using FWHM with the x-axis as the baseline (automatic mode).
(§3) Samples from different batches of SNAC polymorphic form A were subjected to a heat treatment in a tray oven and the sample size was small enough to ensure that the samples equilibrated completely and within a couple of minutes to the oven temperature. Samples were taken from the batches before the heat treatment and after the heat treatment and subjected to XRPD measurements in accordance with method 1 to determine the polymorphic form and impact on crystal imperfections using FWHM with the x-axis as the baseline (auto mode). Furthermore, samples were also subjected to DVS measurements in accordance with method 3 to determine the impact of the heat treatment on the hygroscopicity.

[2] = Dynamic vapour sorption (DVS) moisture uptake, method 3; type: physicochemical; conditions: for Moisture absorption at 65% RH, Before: before heat treatment
Procedure: Moisture sorption/desorption data were measured by a Dynamic Vapour Sorption Advantage 1 from Surface Measurement Systems. Prior to analysis the samples were dried for up to about 48 h in desiccators containing phosphorus pentoxide. Approximately 20 mg of sample was placed into a balance pan and loaded into the instrument and the sample was then further dried for a minimum of 500 min in the instrument at 0% RH using a nitrogen purge. The resulting sample weight after the further drying was assigned as the 0% start weight and all weight gains and losses was calculated relative to this start weight. Sorption and desorption isotherms were collected over a range from 0 to 90% relative humidity (RH) using a nitrogen purge at 25° C. The threshold for equilibrium used for analysis was 0.002 to 0.0005 dm/dt.
Furthermore, samples were taken after 24 h of exposure at the indicated elevated temperatures and were subjected to dynamic vapor sorption measurements in accordance with method 3 to determine the hygroscopicity. The moisture uptake was measured at 65% RH. The hygroscopicity is decreased as the moisture absorbed at 65% RH decreases when exposing SNAC polymorphic form A to elevated temperatures for 24 h.

[3] = Polymorphic form determined by XRPD, method 1; type: physicochemical; conditions: after heat treatment 150° C. for 1 h
Procedure: as §1
The polymorphic form of the sample was determined by comparison of the diffractogram obtained for the sample with reference diffractograms for the SNAC polymorphs and solvates.
as §2, §3

[4] = XRPD with moisture chamber: relative humidity for onset of conversion of form A to trihydrate form F, method 2; type: physicochemical; conditions: increasing RH at ambient conditions
From the text: The moisture chamber allows for controlling the humidity and temperature of the samples during XRPD measurements.
Samples from different batches of SNAC polymorphic form A were subjected to increasing levels of relative humidity at ambient conditions inside a humidity chamber with the possibility of simultaneous determination of the polymorphic form in accordance with the XRPD method 2. The diffractograms were visually inspected for the appearance of characteristic diffraction peaks for the SNAC polymorphic form F in order to determine at which relative humidity polymorphic conversion of form A to F started.

[5] = Dynamic vapour sorption (DVS) moisture uptake, method 3; type: physicochemical; conditions: not ground
[6] = heat treatment: None; derived from example 1 and figures of WO 2005/107462; cited from earlier work
[7] = heat treatment: None; derived from example 1 and figures of WO 2005/107462; cited from earlier work; remark: listed apart in the source
[8] = after heat treatment 120° C. for 24 h
[9] = after heat treatment 120° C. for 20 h
[10] = after heat treatment 150° C. for 1 h
[11] = after heat treatment 115° C. for 24 h
[12] = ground in a mortar with pestle for about 10 min
[13] = heat treatment 115° C. for 24 h
[14] = made per example 2 of WO 2008/028859, after drying at 90° C. for 18 h

Compound	FWHM (automatic mode), XRPD peak around 8.7 ± 0.2° 2θ, Before [1]	Moisture absorption at 65% RH, Before [2]	FWHM (manual mode) ([1]; heat treatment: None)	Moisture absorption at 65% RH ([2]; heat treatment: None)	Onset of trihydrate conversion (form A to form F) ([4]; heat treatment: None)	further results
O=C([O-])CCCCCCCNC(=O)c1ccccc1O.[Na+] [Batch 5, monosodium N-[8-(2-hydroxybenzoyl)-amino]caprylate]	0.97 ° 2θ	1.98%	–	–	–	FWHM (automatic mode), XRPD peak around 8.7 ± 0.2° 2θ, After [1, 8]: 0.58 ° 2θ; Moisture absorption at 65% RH, After [2, 8]: 0.94%
O=C([O-])CCCCCCCNC(=O)c1ccccc1O.[Na+] [Batch 4, monosodium N-[8-(2-hydroxybenzoyl)-amino]caprylate]	0.79 ° 2θ	0.83%	–	–	–	FWHM (automatic mode), XRPD peak around 8.7 ± 0.2° 2θ, After [1, 9]: 0.58 ° 2θ; Moisture absorption at 65% RH, After [2, 9]: 0.84%
O=C([O-])CCCCCCCNC(=O)c1ccccc1O.[Na+] [Batch 2, monosodium N-[8-(2-hydroxybenzoyl)-amino]caprylate]	1.21 ° 2θ	2.90%	0.84 °2θ	2.90%	70 % RH	FWHM (automatic mode), XRPD peak around 8.7 ± 0.2° 2θ, After [1, 10]: 0.42 ° 2θ; Polymorphic form, After [3]: A & B; Moisture absorption at 65% RH, After [2, 10]: 1.04%
O=C([O-])CCCCCCCNC(=O)c1ccccc1O.[Na+] [Batch 1, monosodium N-[8-(2-hydroxybenzoyl)-amino]caprylate]	1.08 ° 2θ	2.66%	–	–	–	FWHM (automatic mode), XRPD peak around 8.7 ± 0.2° 2θ, After [1, 11]: 0.60 ° 2θ; Moisture absorption at 65% RH, After [2, 11]: 1.26%
O=C([O-])CCCCCCCNC(=O)c1ccccc1O.[Na+] [Batch 6, monosodium N-[8-(2-hydroxybenzoyl)-amino]caprylate]	–	–	0.65 °2θ	1.81%	75 % RH	–
O=C([O-])CCCCCCCNC(=O)c1ccccc1O.[Na+] [Batch 3, monosodium N-[8-(2-hydroxybenzoyl)-amino]caprylate]	–	–	0.66 °2θ	1.95%	75 % RH	–
O=C([O-])CCCCCCCNC(=O)c1ccccc1O.[Na+] [Batch 7, monosodium N-[8-(2-hydroxybenzoyl)-amino]caprylate]	–	–	0.61 °2θ	2.06%	70 % RH	–
O=C([O-])CCCCCCCNC(=O)c1ccccc1O.[Na+] [Batch 10, monosodium N-[8-(2-hydroxybenzoyl)-amino]caprylate]	–	–	–	–	–	FWHM (auto mode) [1, 12]: 1.00 °2θ; FWHM (auto mode) ([1]; not ground): 0.79 °2θ; Moisture absorption at 60% RH [2, 12]: 2.99%; Moisture absorption at 60% RH [5]: 1.19%
O=C([O-])CCCCCCCNC(=O)c1ccccc1O.[Na+] [Batch 8, monosodium N-[8-(2-hydroxybenzoyl)-amino]caprylate]	–	–	0.82 °2θ	2.51%	70 % RH	FWHM (manual mode) [1, 13]: 0.47 °2θ; Moisture absorption at 65% RH [2, 13]: 0.99%; Onset of trihydrate conversion (form A to form F) [4, 13]: 80 % RH
O=C([O-])CCCCCCCNC(=O)c1ccccc1O.[Na+] [Batch X, monosodium N-[8-(2-hydroxybenzoyl)-amino]caprylate]	–	–	–	–	–	Moisture absorption at 65% RH [6]: 1.50%; FWHM (manual mode) [7]: 0.90 °2θ
O=C([O-])CCCCCCCNC(=O)c1ccccc1O.[Na+] [Batch 11, monosodium N-[8-(2-hydroxybenzoyl)-amino]caprylate, reference compound]	–	–	–	–	–	FWHM (auto mode) [1, 14]: 1.12 °2θ; Moisture absorption at 65% RH [2, 14]: 2.62%
O=C([O-])CCCCCCCNC(=O)c1ccccc1O.[Na+] [Batch 9, monosodium N-[8-(2-hydroxybenzoyl)-amino]caprylate]	–	–	0.60 °2θ	1.29%	80 % RH	FWHM (manual mode) [1, 13]: 0.52 °2θ; Moisture absorption at 65% RH [2, 13]: 0.98%; Onset of trihydrate conversion (form A to form F) [4, 13]: 80 % RH
